Assay results: patent publication US20210267948A1, “TREATMENT OF CANCER” (CITY OF HOPE, priority 2017, published 2021)

What was measured:
HCC1937 = test: Microarray gene ontology enrichment, HCC1937; type: cell-based, human; details: genes downregulated, HCC1937-COH29 vs HCC1937
Method: FDR values were calculated using the method of Benjamini and Hochberg (28) from the distribution of ANOVA with Linear Contrastp-values. Gene ontology (GO) (29) enrichment analysis was performed within PARTEK® GENOMICS SUITE™, and GO categories were defined significant with a Fisher Exact test p-value<0.05.
To identify the mechanism through which COH29 preferentially lyses BRCA1-mutant human cancer cells, genome-wide microarray analysis was performed using the AFFYMETRIX® GENECHIP® microarray platform to identify the gene expression profiles and pathways affected by COH29 treatment. The RNA expression profile of COH29 treated HCC1937 breast cancer cells lacking BRCA1 was compared with that of COH29 treated HCC1937+BRCA1 cells. […] For example, DNA ligation involved in DNA repair is more strongly enriched in HCC1937 cells which may relate to the phenotypic effect.

[1] = system: wild-type zebrafish embryos; test: Zebrafish genotoxicity assay; type: in vivo, Danio rerio; details: embryos treated 1 to 7 dpf, COH29 0-100 μM
Method: The PARP1 activity was determined using the PARP1 Chemiluminescent Assay Kit (BPS Bioscience, San Diego) according to the manufacturer's protocol. Briefly, the ribosylation reaction was carried out with activated DNA in PARP assay buffer using test inhibitor, positive control, substrate control and blank reactions, for 1 hour at 25° C. Detection was by streptavidin-HRP with chemiluminescent substrate A and B read in a luminometer. NZebrafish (Danio rerio) were obtained from zebrafish Core facility of Taipei Medical University and maintained at 28° C. on a 14 h light/10 h dark cycle. Embryos were incubated at 28° C. and different developmental stages were determined as described (25). Wild-type embryos were treated with different concentrations of HU (0, 5, 10, 20, 50 mM) or COH29 (0, 10, 20, 50, 100 μM) at 20 hpf to evaluate the mutagenic effect. Fifteen embryos were treated per well condition. […] Embryos were observed using an Olympus IX70-FLA inverted fluorescence microscope. Images were taken using SPOT digital camera system (Diagnostic Instruments, Sterling Heights, Mich., USA) and assembled with Image) software (26).
To assess the genotoxicity of COH29, wild-type zebrafish embryos were treated from 1 to 7 dpf (day post-fertilization) with a range of doses of COH29 (0-100 μM) and compared to embryos similarly treated with HU (0-50 mM) which is known to cause developmental defects.

[2] = First-in-human Phase I dose escalation safety study; type: in vivo
Excerpt: First-in-human Phase I, single site, dose escalation, safety study.
Inclusion Criteria: (1) Male and female patients≥18 years of age with advanced, histologically confirmed solid tumors refractory to standard therapy or for which no standard therapy exists; (2) Patients must have measurable or evaluable disease; (3) Patients may be entered if they have received prior radiation therapy involving ≤30% of the bone marrow; (4) Patients may be enrolled with a history of treated brain metastases that are clinically stable for ≥4 weeks prior to enrollment; (5) ECOG Performance Status of ≤2; (6) Life expectancy of greater than 12 weeks as determined by treating clinician assessment; and (7) Adequate organ function per standard laboratory assessments.
Exclusion Criteria: (1) Patients must not have received prior chemotherapy or radiation for ≥4 weeks before study treatment initiation; (2) Patients unable or unwilling to swallow pill; (3) Active heart disease including myocardial infarction within previous 3 months, symptomatic coronary artery disease or heart block, or uncontrolled congestive heart failure; and (4) Women who are pregnant or actively breast-feeding.
Intrapatient dose escalation is allowed and design reverts to standard 3+3 if 2 moderate toxicities or 1 dose limiting toxicity (DLT) is encountered.
With respect to the DLT definition, Grade≥3 non-hematological toxicity will be considered dose limiting with the following clarifications: Grade 3 diarrhea will only be considered dose limiting if it is refractory to treatment and unable to be corrected to grade 1 or less within 24 hours. Bloody or grade 4 diarrhea will be dose limiting; Grade 3 nausea and vomiting will only be considered dose limiting if it is refractory to anti-emetic therapy and unable to be corrected to grade 1 or less within 24 hours; Grade 3 rise in creatinine, not corrected to grade 1 or less within 24 hours with IV fluids will be considered dose limiting. All grade 4 rises in creatinine will be dose limiting; and Grade 3 electrolyte toxicities unable to be corrected to grade 1 or baseline within 24 hours will be considered dose limiting. Tumor pain will not be considered dose limiting unless it is refractory to optimal treatment with analgesics. With respect to Grade 4, the following will be considered: Grade 4 thrombocytopenia; Grade 4 neutropenia lasting ≥5 days or febrile neutropenia; Grade 4 hemolysis; Treatment delay>2 weeks as a result of unresolved toxicity; and any degree of anemia, leucopenia in the absence of grade 4 neutropenia lasting ≥5 days, or lymphopenia will not be considered dose limiting.
Patients receive oral COH29 twice a day for 21 days of a 28-day cycle. Dose levels range from 200 to 2400 mg per day of administration. Dose escalation is pursued utilizing a Simon's accelerated titration design, which allows skipping of dose levels (dose doubling) during the accelerated dose-finding phase. PD assessment includes measurement of plasma CK18 levels to determine degree of cellular apoptosis, evaluation of dNTP pool levels in peripheral blood mononuclear cells (PBMCs) to evaluate RNR inhibition, as well as measurement of PAR expression in PBMCs to assess PARP inhibition. Quantitation of tumor RRM2 expression using dual-color immunohistochemistry is explored as a predictive biomarker of anti-tumor response to COH29.

With `O=C(Nc1nc(-c2ccc(O)c(O)c2)c(-c2ccccc2)s1)c1ccc(O)c(O)c1` [COH29, N-(4-(3,4-dihydroxyphenyl)-5-phenylthiazol-2-yl)-3,4-dihydroxybenzamide] the “Genes (n): DNA ligation involved in DNA repair” value (HCC1937) was 3, the “Genes (n): DNA repair” value (HCC1937) was 17 and the “Genes (n): DSB repair” value (HCC1937) was 7. The “Genes (n): DSB repair via HR” value (HCC1937) was 5, the “Genes (n): DSB repair via NHEJ” value (HCC1937) was 2 and the viability of embryos [1] was “no developmental defects (FIG. 5C) or decrease in viability”. For the same compound, the developmental defects ([1]; HU 0-50 mM) was “no developmental defects”, the “realtime PK monitoring vs AUC safety threshold” value ([2]; every patient, cycle 1) was “no exceeding of AUC safety threshold” and the “toxicity / DLT” value ([2]; first patient, dose level 1, 100 mg twice a day) was “without any DLT”. The “toxicity / DLT” value ([2]; fourth patient, dose level 7, 800 mg twice a day) was “moderate toxicity of grade 2 diarrhea”, the “toxicity / DLT” value ([2]; second patient, dose level 3, 200 mg twice a day) was “moderate toxicity of grade 2 skin rash” and the “toxicity / DLT” value ([2]; third patient, dose level 5, 400 mg twice a day) was “without any DLT”.
